The record followed here is PubChem BioAssay (NCI).

SMILES strings stand for the structures.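 These data come from cells grown in 96-well plates and exposed to compound for 48 hours at five concentrations. GI50 marks 50% less growth. TGI is the concentration that stops growth completely.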 A value given as a limit tells only on which side of the number the result lay.

Test in all cases: NCI anticancer screen, dose series, 48 h
For assay [1], the system named is UO-31 renal.
The subject of assay [2] is DU-145 prostate.
Assay [3] relates to SF-268 CNS.
In assay [4] the test system is A549 NSCLC.
Assay [5] relates to SW-620 colon.
Assay [6] deals with MDA-MB-435.
Assay [7] concerns SF-295 CNS.
Assay [8] concerns HS 578T breast.
Assay [9] relates to UACC-257 melanoma.
Assay [10] relates to OVCAR-8 ovarian.

For the compound `COc1ccc2[nH]c(C(=O)N3CCN(C(=O)OCc4ccc5c(Cl)cc(Cl)c(O)c5n4)CC3)cc2c1`, the GI50 in [1] was 1.01 µM; in assay [2], 1.19 µM; in [3], 1.49 µM; in assay [4], 1.55 µM; in assay [5], 0.401 µM; in assay [6], 1.2 µM. The GI50 is 3.91 µM in assay [7], 1.87 µM in assay [8], 1.41 µM in assay [9] and 1.01 µM in assay [10]. The TGI in assay [1] was 2.17 µM; in assay [2], 2.53 µM; in assay [3] it was 3.02 µM; in assay [4], 3.39 µM; in assay [5], 1.61 µM; in assay [6], 2.72 µM. In addition, the TGI in assay [7] was found to be 13.8 µM; in [8], 6.07 µM; in assay [9] it was 2.8 µM; in [10], 2.42 µM.

In the case of `CC1(C)CC(C)(C)c2cc(NC(=S)Nc3ccc([N+](=O)[O-])cc3)ccc2S1`, the GI50 in assay [1] was 12.4 µM; in assay [2], 13.1 µM; in assay [3], 26.5 µM; in [4], 12.3 µM; in [5] it was 15.6 µM; in [6], 11.8 µM. In addition, the GI50 is 10.8 µM in [7], 24.2 µM in assay [8], 13.6 µM in assay [9] and 16.6 µM in assay [10]. Further, the TGI is 39.4 µM in assay [1]; 34.6 µM in assay [2]; above 53.7 µM in assay [3]; 52.7 µM in assay [4]; above 80.2 µM in assay [5]; 30.5 µM in assay [6]. Also, the TGI in assay [7] was 27.2 µM; in [8], 58.3 µM; in [9], 50.7 µM; in [10], 60.4 µM.

As for `NCCO/C=C/C(N)C(=O)O` (stereo not given), the TGI in assay [1], in assay [2], in [3], in assay [4], in [5] and in assay [6] was above 100 µM in each case. The TGI in [7], in assay [8], in assay [9] and in assay [10] was above 100 µM throughout.

In the case of `COC1=CC(=O)O/C1=C(\OC)C1OC1c1ccccc1` (stereo not given), the TGI in [1], in assay [2], in [3], in [4], in assay [5] and in assay [6] was above 100 µM each time. Further, the TGI in assay [7], in [8], in assay [9] and in [10] was above 100 µM throughout.

Consider `CC1=NN(c2cccc(Cl)c2)C(=O)/C1=C\c1cn(CC(O)CN2CCCCC2)c2ccccc12` (stereo not given), for which the GI50 in assay [1] is 1.73 µM; in assay [2] it was 10.4 µM; in [3], 10.1 µM; in [4] it was 24.6 µM; in assay [5], 1.73 µM; in [6] it was 1.89 µM. Moreover, the GI50 is 2.24 µM in assay [7], 6.14 µM in [8], 2.35 µM in [9] and 6.93 µM in [10]. In addition, the TGI in assay [1] was 7.12 µM; in assay [2] it was 23.2 µM; in assay [3] it was 24.9 µM; in assay [4], 72.9 µM; in [5] it was 3.53 µM; in assay [6], 3.74 µM. Further, the TGI worked out at 5.49 µM in assay [7], 33.6 µM in assay [8], 4.62 µM in assay [9] and 92.9 µM in assay [10].

`O=C(Nc1n[nH]c2cc(-c3cc(F)ccc3F)ccc12)C1CC1`: the GI50 in assay [1] is 16.1 µM; in assay [2] it was 17.7 µM; in assay [3], 19.5 µM; in [4] it was 11.4 µM; in assay [5], 10.7 µM; in assay [6], 4.56 µM. The GI50 in assay [7] was 16.9 µM; in [8], 13.1 µM; in [9], above 25 µM; in assay [10], above 22 µM. Besides, the TGI in assay [1] is above 25 µM; in assay [2], above 25 µM; in [3], above 25 µM; in assay [4], above 25 µM; in assay [5], above 25 µM; in [6] it was 21.5 µM. Moreover, the TGI in [7], in assay [8], in assay [9] and in [10] was above 25 µM throughout.

On to `CCC[CH2][Sn-]([CH2]CCC)([CH2]CCC)[O]C(=O)C(C)C`, for which the GI50 in assay [1] was 0.158 µM; in assay [2], 0.124 µM; in [3], 0.144 µM; in [4] it was 0.13 µM; in [5], 0.124 µM; in assay [6], 0.153 µM. Besides, the GI50 in assay [7] was 0.199 µM; in [8] it was 0.354 µM; in assay [9] it was 0.135 µM; in assay [10], 0.129 µM. Also, the TGI in assay [1] amounted to 0.312 µM; in assay [2] it was 0.252 µM; in assay [3] it was 0.333 µM; in assay [4], 0.267 µM; in assay [5], 0.272 µM; in [6] it was 0.289 µM. Besides, the TGI in assay [7] came out at 0.365 µM; in assay [8], 1.92 µM; in assay [9], 0.265 µM; in [10], 0.255 µM.

As for `COc1cc(O)ccc1C(=S)SC`, the TGI in assay [1], in [2], in assay [3], in assay [4], in assay [5] and in [6] was above 100 µM throughout. For the same compound, the TGI in assay [7] is above 100 µM; in assay [8], 98.5 µM; in [9], above 100 µM; in [10] it was above 100 µM.

Regarding `O=S(=O)(NC1=NCCN1C(=S)SN1CCn2c1nsc2=S)c1ccc(Cl)cc1`, the GI50 was 2.28 µM in assay [1]; 7.9 µM in [2]; 6.5 µM in assay [3]; 12.8 µM in assay [4]; 4.42 µM in assay [5]; 3.02 µM in assay [6]. Besides, the GI50 is 16.7 µM in assay [7], 14 µM in assay [8], 10.8 µM in [9] and 7.13 µM in assay [10]. Further, the TGI in assay [1] stood at 5.92 µM; in assay [2], 30.9 µM; in assay [3] it was 28 µM; in [4] it was 37.8 µM; in [5], 17.9 µM; in assay [6], 10.5 µM. In addition, the TGI in [7] was 34.8 µM; in assay [8] it was 75.2 µM; in assay [9], 29.4 µM; in assay [10], above 100 µM.
